# Values of other authors, collected in patent US20240263147A1, “CARDIAC ORGANOID AND ANTI-ELECTRO-MITOCHONDRIAL DESYNCHRONIZATION THERAPY” (YISSUM RESEARCH DEVELOPMENT COMPANY OF THE HEBREW …, priority 2021, published 2024).
# Details: known cardiac side effects of therapeutic agents; cited from earlier work
row,Compound,Side effect (cardiac)
1,CCN(CC)CC(=O)Nc1c(C)cccc1C [Lidocaine],"bradycardia, cardiac arrest"
2,CC(C)(N)Cc1ccc(Cl)cc1 [Chlorphentermine],pulmonary heart disease
3,CC(C)OC(=O)[C@H](C)N[P@](=O)(OC[C@H]1O[C@@H](n2ccc(=O)[nH]c2=O)[C@](C)(F)[C@@H]1O)Oc1ccccc1 [Sofobuvir],Bradycardia
4,CN(CCOc1ccc(CC2SC(=O)NC2=O)cc1)c1ccccn1 (centres unmarked) [Rosiglitazone],heart failure
5,CN1C[C@H](C(=O)N[C@]2(C)O[C@@]3(O)[C@@H]4CCCN4C(=O)[C@H](Cc4ccccc4)N3C2=O)C=C2c3cccc4[nH]cc(c34)C[C@H]21 [Ergotamine],valvular heart disease
6,COc1cc(OC)c(C(=O)CCCN2CCCC2)c(OC)c1 [Buflomedil],"QT prolongation, cardiac arrest"
7,CC(C)C[C@H](NC(=O)[C@H](Cc1ccccc1)NC(=O)c1cnccn1)B(O)O [Bortezomib],"heart failure, arrhythmia"
8,CNC(=O)c1cc(Oc2ccc(NC(=O)Nc3ccc(Cl)c(C(F)(F)F)c3)cc2)ccn1 [Sorafenib],"heart failure, myocardial ischemia, QT prolongation"
9,CC(CC(c1ccccc1)c1ccccc1)NC(C)(C)C (centres unmarked) [Terodiline],"ventricular tachycardia, cardiac death"
10,CCCN1C[C@H](CSC)C[C@@H]2c3cccc4[nH]cc(c34)C[C@H]21 [Pergolide],valvular heart disease
11,COc1ccc(CCN2CCC(Nc3nc4ccccc4n3Cc3ccc(F)cc3)CC2)cc1 [Astemizole],"long QT syndrome, TdP"
12,Ipilimumab,lethal myocarditis
13,COc1cccc2c1C(=O)c1c(O)c3c(c(O)c1C2=O)C[C@@](O)(C(C)=O)C[C@@H]3O[C@H]1C[C@H](N)[C@H](O)[C@H](C)O1 [Daunorubicin],"arrhythmias, heart failure"
14,COCC(=O)O[C@]1(CCN(C)CCCc2nc3ccccc3[nH]2)CCc2cc(F)ccc2[C@@H]1C(C)C [Mibefradil],QT prolongation
15,Cc1cn([C@H]2C[C@H](N=[N+]=[N-])[C@@H](CO)O2)c(=O)[nH]c1=O [Azidothymidine],dilated cardiomyopathy
16,Cc1nc(Nc2ncc(C(=O)Nc3c(C)cccc3Cl)s2)cc(N2CCN(CCO)CC2)n1 [Dasatinib],heart failure
17,CS(=O)(=O)c1ccc(C2=C(c3ccccc3)C(=O)OC2)cc1 [Rofecoxib],myocardial infarction
18,CCN[C@@H](C)Cc1cccc(C(F)(F)F)c1 [Dexfenfluramine],valvular heart disease
19,CC(CN(C)C)C(C)(O)Cc1ccc(Cl)cc1 (centres unmarked) [Clobutinol],QT prolongation
20,CCCCCNC(=N)N/N=C/c1c[nH]c2ccc(OC)cc12 [Tegaserod],Ischemia
21,COc1ccc(C(CN(C)C)C2(O)CCCCC2)cc1 (centres unmarked) [Venlafaxine],"QT prolongation, arrhythmias"
22,Cn1c(=O)cc(N2CCC[C@@H](N)C2)n(Cc2ccccc2C#N)c1=O [Alogliptin],heart failure
23,COc1cc2c(Nc3ccc(Br)cc3F)ncnc2cc1OCC1CCN(C)CC1 [Vandetanib],long QT
24,CC[C@H]1OC(=O)[C@H](C)[C@@H](O[C@H]2C[C@@](C)(OC)[C@@H](O)[C@H](C)O2)[C@H](C)[C@@H](O[C@@H]2O[C@H](C)C[C@H](N(C)C)[C@H]2O)[C@](C)(OC)C[C@@H](C)C(=O)[C@H](C)[C@@H](O)[C@]1(C)O [Clarithromycin],"QT prolongation, myocardial infarction, arrhythmias, cardiac death"

row,Compound,Side effect (cardiac)
1,CCN(CC)CCNC(=O)c1c(C)[nH]c(/C=C2\C(=O)Nc3ccc(F)cc32)c1C [Sunitinib],"long QT, left ejection fraction, myocardial infarction"
2,C[C@@H]1CN(c2c(F)c(N)c3c(=O)c(C(=O)O)cn(C4CC4)c3c2F)C[C@H](C)N1 [Sparfloxacin],QT prolongation
3,O=C1NCCN1CCN1CCC(c2cn(-c3ccc(F)cc3)c3ccc(Cl)cc23)CC1 [Sertindole],"QT prolongation, TdP, sudden cardiac death"
4,CCCCN1CCCCC1C(=O)Nc1c(C)cccc1C (centres unmarked) [Bupivacaine],"ventricular arrhythmias, myocardial depression"
5,CC(=O)[C@]1(O)Cc2c(O)c3c(c(O)c2[C@@H](O[C@H]2C[C@H](N)[C@H](O)[C@H](C)O2)C1)C(=O)c1ccccc1C3=O [Idarubicin],"arrhythmias, heart failure"
6,CC(C)(N)Cc1ccccc1 [Phentermine],valvular heart disease
7,O=c1[nH]cc(F)c(=O)[nH]1 [5-fluorouracil],"arrhythmias, myocardial ischemia, heart failure"
8,O=C1Cc2cc(CCN3CCN(c4nsc5ccccc45)CC3)c(Cl)cc2N1 [Ziprasidone],"QT prolongation, TdP, sudden cardiac death"
9,CC[C@@H](CO)NC(=O)[C@@H]1C=C2c3cccc4c3c(cn4C)C[C@H]2N(C)C1 [Methysergide],valvular heart disease
10,CC(=O)O[C@@]12CO[C@@H]1C[C@H](O)[C@@]1(C)C(=O)[C@H](O)C3=C(C)[C@@H](OC(=O)[C@H](O)[C@@H](NC(=O)OC(C)(C)C)c4ccccc4)C[C@@](O)([C@@H](OC(=O)c4ccccc4)[C@H]21)C3(C)C [Docetaxel],"bradycardia, myocardial ischemia, heart failure"
11,Cc1ccc(-c2ncc(Cl)cc2-c2ccc(S(C)(=O)=O)cc2)cn1 [Etoricoxib],thrombotic events
12,COc1cccc2c1C(=O)c1c(O)c3c(c(O)c1C2=O)C[C@@](O)(C(=O)CO)C[C@@H]3O[C@H]1C[C@H](N)[C@H](O)[C@H](C)O1 [Doxorubicin],"arrhythmias, heart failure"
13,CCNC(C)Cc1cccc(C(F)(F)F)c1 (centres unmarked) [Fenfluramine],valvular heart disease
14,COc1ccc(C(=O)Nc2ccccc2CCC2CCCCN2C)cc1 (centres unmarked) [Encainide],"QT prolongation, TdP"
15,N.N.[Cl][Pt][Cl] [Cisplatin],"arrhythmias, myocardial ischemia, heart failure"
16,CS(=O)(=O)CCNCc1ccc(-c2ccc3ncnc(Nc4ccc(OCc5cccc(F)c5)c(Cl)c4)c3c2)o1 [Lapatinib],"left ventricular ejection fraction, congestive heart failure"
17,COC(=O)[C@H]1[C@@H](OC(=O)c2ccccc2)C[C@@H]2CC[C@H]1N2C [Cocaine],"left ventricular hypertrophy, arrhythmias"
18,COc1ccc2[nH]c([S+]([O-])Cc3ncc(C)c(OC)c3C)nc2c1 (centres unmarked) [Omeprazole],"acute myocardial infarction, heart failure"
19,Arsenic trioxide,"QT prolongation, tachycardia"
20,COc1cc(N)c(Cl)cc1C(=O)NC1CCN(CCCOc2ccc(F)cc2)CC1OC (centres unmarked) [Cispapride],"ventricular arrhythmia, QT prolongation, TdP, cardiac arrest"
21,Nivolumab,lethal myocarditis
22,N=C(N)c1ccc(OCCCCCOc2ccc(C(=N)N)cc2)cc1 [Pentamidine],"QT prolongation, arrhythmias"
23,COc1ccc2cc([C@H](C)C(=O)O)ccc2c1 [Naproxen],myocardial infarction
